Activity calls are given as the source filed them. No stated cut-off is given here; in the data, actives have a measured IC50 and inactives only a lower limit.
target: Envelope glycoprotein gp160 (Human immunodeficiency virus 1, UniProt Q6QLK5); assay: inhibitors of HIV fusion peptide binding, primary screen, biochemical, uHTS, fluorescence dequenching (AID 1986)
Sequence (Q6QLK5 whole entry, the tested form may be a part): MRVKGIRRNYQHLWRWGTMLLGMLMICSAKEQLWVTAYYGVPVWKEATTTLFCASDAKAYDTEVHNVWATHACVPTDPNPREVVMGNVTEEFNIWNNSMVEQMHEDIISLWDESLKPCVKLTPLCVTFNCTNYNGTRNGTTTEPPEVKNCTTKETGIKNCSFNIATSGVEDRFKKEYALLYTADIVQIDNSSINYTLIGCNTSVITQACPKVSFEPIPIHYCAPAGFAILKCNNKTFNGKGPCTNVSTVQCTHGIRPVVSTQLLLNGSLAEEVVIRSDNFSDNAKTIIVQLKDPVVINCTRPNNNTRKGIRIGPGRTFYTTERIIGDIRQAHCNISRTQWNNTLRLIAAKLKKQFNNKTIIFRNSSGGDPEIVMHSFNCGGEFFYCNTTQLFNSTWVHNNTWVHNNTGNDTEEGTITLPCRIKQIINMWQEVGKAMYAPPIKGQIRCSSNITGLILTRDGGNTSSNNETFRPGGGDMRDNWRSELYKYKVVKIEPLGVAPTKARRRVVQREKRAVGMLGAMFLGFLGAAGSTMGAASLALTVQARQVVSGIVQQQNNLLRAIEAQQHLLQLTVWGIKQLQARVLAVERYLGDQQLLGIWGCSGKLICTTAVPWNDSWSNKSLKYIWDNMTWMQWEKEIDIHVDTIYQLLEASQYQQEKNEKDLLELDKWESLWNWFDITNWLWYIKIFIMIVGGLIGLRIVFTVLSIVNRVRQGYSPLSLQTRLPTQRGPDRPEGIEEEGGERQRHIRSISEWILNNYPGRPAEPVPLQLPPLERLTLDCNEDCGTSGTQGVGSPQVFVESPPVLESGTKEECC

SMILES	IC50
COc1cc(/C=C(\C#N)c2nc3cc(C)ccc3[nH]2)cc([N+](=O)[O-])c1O	18.7 µM (active)
CCc1ccc(/C=C2\SC(=S)N(CCCC(=O)Nc3ccccc3C(=O)O)C2=O)cc1	12.4 µM (active)
CCOc1ccc(C2C(C(=O)Nc3ccccc3)=C(C)N=c3s/c(=C/c4cccc(OCC(=O)O)c4)c(=O)n32)cc1 (stereo not drawn)	28.8 µM (active)
